Source: patent US20050074844A1, “Methods for identifying markers of antimicrobial compounds” (priority 2002, published 2005)
In brackets after ≈: the same amount, converted by molar mass. Where a SMILES comes first, the peptide text is derived from it.

What was measured:
[1] = test system: Bacillus subtilis BGSC1A2; experiment: microbe, parasite or virus in culture
Experimental: Microbroth dilution assays were performed as described in NCCLS M7-A5 (Vol. 20, No. 2). The assay was performed in a sterile 96 well plate, and the total volume per well was 100 μl. […] The inoculum was prepared by culturing Bacillus subtilis BGSC1A2 overnight in MHB medium at 35° C. with shaking at 200 rpm. The following day 0.5 ml of the overnight culture was used to inoculate MHB medium to obtain a culture in logarithmic phase growth as described in NCCLS M7-A5 (Vol. 20, No. 2) and M26-A (Vol. 19, No. 18). The actual colony forming units per well was confirmed by plating onto TSA or LB agar. Two wells were inoculated for a given concentration. The plates were incubated for 16 to 20 hours at 35° C. The MIC was defined as that concentration of antibiotic resulting in no visible growth of the organism.

[2] = test system: Bacillus subtilis strain BGSC1A2; experiment: Cell viability (colony forming units per ml) of cultures treated with sub-inhibitory antibiotic concentrations; assay type: cell-based; conditions: for colony forming units or viability: all sub-inhibitory concentrations tested (Table 3), versus untreated cultures
Experimental: […] The shake flasks were incubated at 37° C. and 200 rpm. At times 5, 15, 30 and 60 minutes after antibiotic addition, 100 ml and 1.1 ml samples were taken from each shake flask and processed as described above. After the 60 minute time point, 1.1 ml aliquots from each shake flask were taken every hour for four hours for optical density and cell viability measurements.
Cell viability was determined on all the samples by determining colony forming units per ml. Samples collected were diluted in MHB to obtain 10 to 500 colonies per plate as follows: samples collected at t=0 were diluted at 1:100,000; t=5 minutes, dilution was 1:150,000; t=15 minutes, dilution was 1:200,000; t=30 minutes, dilution was 1:250,000; t=1 hour, dilution was 1:300,000; t=1.5 hours, dilution was 1:400,000; t=2.5 hours, dilution was 1:800,000; and t=3.5 hours, dilution was 1:1,000,000. These dilutions factors can be changed as indicated by the response to the antibiotic being tested. For each diluted sample 20 μl and 40 μl aliquots were spread onto each of two pre-warmed LB agar plates, which were incubated overnight at 37° C. The number of colonies on each plate was counted to determine the colony forming units per ml of each sample.

[3] = test system: Bacillus subtilis strain BGSC1A2; experiment: Growth curve (optical density at 600 nm) of shake flask cultures treated with sub-inhibitory antibiotic concentrations; assay type: cell-based; conditions: for growth rate as measured by optical density at 600 nm: all sub-inhibitory concentrations tested (Table 3), versus untreated cultures
Experimental: Bacillus subtilis strain BGSC1A2 was streaked onto a LB agar plate and incubated overnight at 37° C. The cultured plate was stored at room temperature for up to one week. Fifty ml of MHB medium in a 250 ml flask was inoculated with one colony from the plate. The culture was incubated overnight at 37° C. and 200 rpm.
A 30.7 ml sample of the overnight culture was used to inoculate 3.6 liters of MHB medium pre-warmed at 37° C. After mixing the culture well, 600 ml aliquots were removed and placed into each of six 2.8 liter baffled shake flasks. A 1 ml sample of each flask was taken for optical density measurement at 600 nm, and the shake flasks were incubated at 37° C. and 200 rpm. One ml samples were taken from each flask every 30 minutes until the OD600 reached 0.2. At this point, which was designated time zero, 100 ml samples from each shake flask were taken, and 50 ml aliquots were placed in each of two 50 ml centrifuge tubes. In addition, 1.1 ml aliquots were taken from each flask with 1 ml used for an optical density measurement at 600 nm and 50 μl of each was placed in a microfuge tube at 4° C. The 50 ml samples were processed immediately by centrifugation at 4000 rpm at 4° C. for 7 minutes, and after centrifugation the supernatant was decanted being careful not to disturb the pellet which was immediately placed at −80° C. for total RNA isolation at a later time.
At time zero, different sub-inhibitory concentrations (0.1-1×MIC) of a given antibiotic were added to three of the shake flasks (Table 2) and the other three shake flasks were untreated. The shake flasks were incubated at 37° C. and 200 rpm. At times 5, 15, 30 and 60 minutes after antibiotic addition, 100 ml and 1.1 ml samples were taken from each shake flask and processed as described above. After the 60 minute time point, 1.1 ml aliquots from each shake flask were taken every hour for four hours for optical density and cell viability measurements.

[4] = test system: Bacillus subtilis strain BGSC1A2; experiment: as above; assay type: cell-based; conditions: 0.01 and 0.02 x MIC (0.0025 and 0.005 μg/ml)

Row | Molecule | MIC ([1]; Bacillus subtilis, BGSC1A2) [µg/mL] | colony forming units or viability [2] | growth rate as measured by optical density at 600 nm [3] | other results
1 | O=C(N[C@H](CO)[C@H](O)c1ccc([N+](=O)[O-])cc1)C(Cl)Cl [chloramphenicol] | 2 to 4 (≈ 6.19 to 12.4 µM) |  |  | 
2 | CC(=O)OCC1=C(C(=O)O)N2C(=O)[C@@H](NC(=O)Cc3cccs3)[C@H]2SC1 [cephalothin] | 0.0156 to 0.0625 (≈ 0.0393 to 0.158 µM) | decrease in colony forming units or viability |  | growth rate as measured by optical density ([3]; 0.00156 μg/ml (0.1 x MIC)): very little effect, if any; growth rate as measured by optical density ([3]; 0.0078 μg/ml (0.50 x MIC)): moderate decrease; growth rate as measured by optical density ([3]; 0.0156 μg/ml (1.0 x MIC)): large
3 | gentamicin |  | decrease in colony forming units or viability | very little effect if any | MIC ([1]; no visible growth after 16 to 20 hours at 35° C., MHB medium): 0.125 to 0.25 µg/mL
4 | CCn1cc(C(=O)O)c(=O)c2ccc(C)nc21 [nalidixic acid] | 4 (≈ 17.2 µM) |  |  | 
5 | CC(C)C[C@@H](NC(=O)[C@H](C)NC(=O)CNC(=O)[C@@H](NC=O)C(C)C)C(=O)N[C@@H](C)C(=O)N[C@@H](C(=O)N[C@H](C(=O)N[C@@H](C(=O)N[C@@H](Cc1c[nH]c2ccccc12)C(=O)N[C@H](CC(C)C)C(=O)N[C@@H](Cc1c[nH]c2ccccc12)C(=O)N[C@H](CC(C)C)C(=O)N[C@@H](Cc1c[nH]c2ccccc12)C(=O)N[C@H](CC(C)C)C(=O)N[C@@H](Cc1c[nH]c2ccccc12)C(=O)NCCO)C(C)C)C(C)C)C(C)C [gramicidin A] (HELM PEPTIDE1{[O=C[*:2]].V.G.A.[dL].A.[dV].V.[dV].W.[dL].W.[dL].W.[dL].W.[OCCN[*:1]]}$$$$V2.0; N-terminus and C-terminus assumed) |  |  |  | MIC ([1]; BGSC1A2): 8.0 µg/mL (≈ 4.25 µM)
6 | O=C(O)c1cn(C2CC2)c2cc(N3CCNCC3)c(F)cc2c1=O [ciprofloxacin] |  | decrease in colony forming units or viability |  | 
7 | CO[C@@H]1[C@@H](OC(N)=O)[C@@H](O)[C@H](Oc2ccc3c(O)c(NC(=O)c4ccc(O)c(CC=C(C)C)c4)c(=O)oc3c2C)OC1(C)C [novobiocin] | 2 (≈ 3.26 µM) |  |  | 
8 | COc1cc(Cc2cnc(N)nc2N)cc(OC)c1OC [trimethoprim] | 0.25 (≈ 0.861 µM) | did not lead to a change in colony forming units or viability | did not have an effect on growth rate | 
9 | CCn1cc(C(=O)O)c(=O)c2cc(F)c(N3CCNCC3)cc21 [norfloxacin] | 0.5 (≈ 1.57 µM) | decrease in colony forming units or viability | very little effect, if any | 
10 | CN[C@H](CC(C)C)C(=O)N[C@H]1C(=O)N[C@@H](CC(N)=O)C(=O)N[C@H]2C(=O)N[C@H]3C(=O)N[C@H](C(=O)N[C@H](C(=O)O)c4cc(O)cc(O)c4-c4cc3ccc4O)[C@H](O)c3ccc(c(Cl)c3)Oc3cc2cc(c3O[C@@H]2O[C@H](CO)[C@@H](O)[C@H](O)[C@H]2O[C@H]2C[C@](C)(N)[C@H](O)[C@H](C)O2)Oc2ccc(cc2Cl)[C@H]1O [vancomycin] | 0.125 to 0.25 (≈ 0.0863 to 0.173 µM) | no effect on viability | very little effect, if any | 
11 | munumbicin B |  | decrease in colony forming units or viability |  | 
12 | [H]/N=C(/N)N[C@H]1[C@H](O)[C@@H](O)[C@H](O[C@@H]2O[C@@H](C)[C@](O)(C=O)[C@H]2O[C@@H]2O[C@@H](CO)[C@H](O)[C@@H](O)[C@@H]2NC)[C@@H](N/C(N)=N\[H])[C@@H]1O [streptomycin] | 4 to 8 (≈ 6.88 to 13.8 µM) | decrease in colony forming units or viability |  | growth rate as measured by optical density ([3]; 0.8 μg/ml (0.1 x MIC)): growth rate similar to the untreated cultures; growth rate as measured by optical density ([3]; 4.0 μg/ml (0.50 x MIC)): moderate decrease in growth rate; growth rate as measured by optical density ([3]; 8.0 μg/ml (1.0 x MIC)): large
13 | CO[C@H]1/C=C/O[C@@]2(C)Oc3c(C)c(O)c4c(O)c(c(/C=N/N5CCN(C)CC5)c(O)c4c3C2=O)NC(=O)/C(C)=C\C=C\[C@H](C)[C@H](O)[C@@H](C)[C@@H](O)[C@@H](C)[C@H](OC(C)=O)[C@@H]1C [rifampin] | 0.25 to 0.5 (≈ 0.304 to 0.608 µM) |  |  | colony forming units ([2]; 0.01 or 0.02 x MIC (0.0025 and 0.005 μg/ml)): no effect on colony forming units; growth rate as measured by optical density [4]: very little effect if any
14 | CC[C@H]1OC(=O)[C@H](C)[C@@H](O[C@H]2C[C@@](C)(OC)[C@@H](O)[C@H](C)O2)[C@H](C)[C@@H](O[C@@H]2O[C@H](C)C[C@H](N(C)C)[C@H]2O)[C@](C)(O)C[C@@H](C)C(=O)[C@H](C)[C@@H](O)[C@]1(C)O [erythromycin] | 0.125 to 0.25 (≈ 0.17 to 0.341 µM) | decrease in colony forming units or viability | decrease in growth rate that was dose dependent | 
